According to ChEMBL document CHEMBL5108073, “Evolution of Potential Antimitotic Stapled Peptides from Multiple Helical Peptide Stretches of the Tubulin Heterodimer Interface: Helix-Mimicking Stapled Peptide Tubulin Inhibitors” (J Med Chem, 2022):
Activity calls are given as the source filed them. The calls are words filed in the database; no cut-off is given here. Numbered stars: 1 amine (or outer) side, 2 acyl side, 3 side chain; on linkers, the order of the positions; unused ones are H or OH. Bridge positions count the residues as written; N and C are the ends. Square brackets hold non-standard residues; d marks the D form. Peptide text beside a SMILES is read from it. Nle(6-ylidene) = O=C([C@H](CCCC=[*:3])N[*:1])[*:2]; Phe(4-Br) = N[C@@H](Cc1ccc(Br)cc1)C(=O)O; Phe(4-Cl) = N[C@@H](Cc1ccc(Cl)cc1)C(=O)O; Phe(4-F) = N[C@@H](Cc1ccc(F)cc1)C(=O)O; Phe(4-I) = N[C@@H](Cc1ccc(I)cc1)C(=O)O

Legend:
Tubulin (Homo sapiens) [1] = target: T1, Tubulin (Homo sapiens) (UniProt P68371+Q9H4B7+P0DPH7+P68366+Q13509+Q71U36+P04350+Q3ZCM7+P07437+P68363+Q9BQE3+Q6PEY2+Q13885+Q9BVA1+Q9BUF5); assay: Inhibition of tubulin polymerization (unknown origin) at 10 uM by DAPI staining based assay; type: protein-complex assay
B16-F10 [2] = assay: Antitumor activity against mouse B16F10 cells implanted in C57BL/6J mouse assessed as tumor muscle damage at 5 mg/kg, ip administered for 14 days by caliper method; type: functional, organism-based; details: time 14.0 day
Tubulin [3] = assay: Binding affinity to tubulin (unknown origin) assessed as binding constant by SPR analysis; type: protein-complex assay, Homo sapiens
MCF7 [4] = assay: Cytotoxicity against human MCF7 cells assessed as reduction in cell viability incubated for 24 hrs by MTT assay; type: functional, cell-based; details: MCF7, 24 h
MCF7 [5] = assay: Induction of apoptosis in human MCF7 cells assessed as late apoptotic cells by annexin V FITC and propidium iodide staining based flow cytometry (reference value: 0 %); type: functional
MCF7 [6] = assay: Induction of apoptosis in human MCF7 cells assessed as upregulation of BubR1 protein expression by Western blot analysis; type: functional, cell-based
B16-F10 [7] = assay: Antitumor activity against mouse B16F10 cells implanted in C57BL/6J mouse assessed as blood vessels damage at 5 mg/kg, ip administered for 14 days by caliper method; type: functional, organism-based; details: time 14.0 day
MCF7 [8] = assay: Induction of apoptosis in human MCF7 cells assessed as upregulation of Mad2 protein expression by Western blot analysis; type: functional, cell-based
MCF7 [9] = assay: Induction of apoptosis in human MCF7 cells assessed as upregulation of p21 protein expression by Western blot analysis; type: functional, cell-based
MCF7 [10] = assay: Drug uptake in human MCF7 cells at 4 uM incubated for 24 hrs by fluorescence microscopic analysis; type: functional, cell-based
[11] = Drug uptake in human MCF7 cells at 4 uM incubated for 24 hrs by flow cytometry analysis; type: ADME, cell-based; details: mcf7, 24 h
MCF7 [12] = assay: Induction of apoptosis in human MCF7 cells assessed as early apoptotic cells by annexin V FITC and propidium iodide staining based flow cytometry (reference value: 0 %); type: functional
MCF7 [13] = assay: Antitumor activity in human MCF7 cells cultured as 3D spheroids assessed as decrease in spheroid volume at 4 uM measured up to 7 days by inverted microscopic analysis; type: functional, cell-based; details: time <= 7.0 day
B16-F10 [14] = assay: Antitumor activity against mouse B16-F10 cells implanted in C57BL/6J mouse assessed as reduction in tumor size at 5 mg/kg, ip administered for 14 days by caliper method; type: functional, organism-based; details: time 14.0 day
Tubulin (Homo sapiens) [15] = target: T1, Tubulin (Homo sapiens); assay: Binding affinity to tubulin (unknown origin) assessed as association constant by SPR analysis; type: protein-complex assay
[16] = Toxicity in C57BL/6J mouse implanted with B16F10 cells assessed as change in body weight at 5 mg/kg, ip administered for 14 days; type: organism-based, B16-F10; details: in vivo, 336 h, time 14 day
Tubulin [17] = assay: Binding affinity to tubulin (unknown origin) assessed as binding constant by ITC analysis; type: protein-complex assay, Homo sapiens
Tubulin (Homo sapiens) [18] = target: T1, Tubulin (Homo sapiens); assay: Binding affinity to microtubule in human MCF7 cells at 20 uM after 2 hrs by Hoechst 33258 staining based fluorescence microscopy analysis; type: cell-based
MCF7 [19] = assay: Induction of apoptosis in human MCF7 cells assessed as viable cells by annexin V FITC and propidium iodide staining based flow cytometry (reference value: 100 %); type: functional
MCF7 [20] = assay: Induction of apoptosis in human MCF7 cells assessed as necrotic cells by annexin V FITC and propidium iodide staining based flow cytometry (reference value: 0 %); type: functional
Tubulin (Homo sapiens) [21] = target: T1, Tubulin (Homo sapiens); assay: Inhibition of tubulin polymerization (unknown origin) at 10 uM by turbidity assay; type: protein-complex assay
B16-F10 [22] = assay: Antitumor activity against mouse B16F10 cells implanted in C57BL/6J mouse assessed as tumor cell damage at 5 mg/kg, ip administered for 14 days by caliper method; type: functional, organism-based; details: time 14.0 day
MCF7 [23] = assay: Induction of apoptosis in human MCF7 cells assessed as upregulation of p53 protein expression by Western blot analysis; type: functional, cell-based
Tubulin [24] = assay: Binding affinity to tubulin (unknown origin) assessed as binding constant by tryptophan quenching analysis; type: protein-complex assay, Homo sapiens
Tubulin (Homo sapiens) [25] = target: T1, Tubulin (Homo sapiens); assay: Induction of microtubule depolymerization in human MCF7 cells; type: cell-based
[26] = Metabolic stability in human plasma at 200 uM incubated for 24 hrs by MALDI-MS analysis; type: ADME, cell-free
MCF7 [27] = assay: Induction of cell cycle arrest in human MCF7 cells assessed as accumulation of cells at G2/M phase; type: functional, cell-based

Compound	Kd (Tubulin [3]) [µM]	IC50 (MCF7 [4]) [µM]	Activity (MCF7 [5]) [%]	Activity (MCF7 [6])	Activity (MCF7 [8])	Activity (MCF7 [9])	Activity (MCF7 [10])	Drug uptake [11]	Activity (MCF7 [12]) [%]	Ka (Tubulin (Homo sapiens) [15])	Ka (Tubulin [17]) [M⁻¹]	Activity (MCF7 [19]) [%]	Activity (MCF7 [20]) [%]	Activity (MCF7 [23])	Activity (Tubulin (Homo sapiens) [25])	Stability [26]	Activity (MCF7 [27])	further results
CC(=O)N[C@@H](Cc1ccccc1)C(=O)N[C@@H](CCCNC(=N)N)C(=O)N[C@@H](CCCNC(=N)N)C(=O)N[C@@H](CCCCN)C(=O)N[C@@H](C)C(=O)N[C@@H](Cc1ccc(F)cc1)C(=O)N[C@H]1CCC/C=C\CCC[C@@H](C(=O)NCC(=O)O)NC(=O)[C@H](Cc2ccc(O)cc2)NC(=O)[C@H](Cc2c[nH]c3ccccc23)NC(=O)[C@H](Cc2c[nH]cn2)NC1=O (Ac-FRRKA[Phe(4-F)][Nle(6-ylidene)]HWY[Nle(6-ylidene)]G-OH; staple (Z) 7-11)	3.6	3.71	58	Active	Active	Active	Active	Active	23.5	2.14 10^4/M/s	45200	12.2	6.3	Active	Active	Stable	Active	inhibition (Tubulin (Homo sapiens) [1]): Active; Activity (B16-F10 [2]): Active; Activity (B16-F10 [7]): Active; Activity (MCF7 [13]): Active; Activity (B16-F10 [14]): Active; Activity [16]: Non-Toxic; Activity (Tubulin (Homo sapiens) [18]): Active; inhibition (Tubulin (Homo sapiens) [21]): Active; Activity (B16-F10 [22]): Active; Ka (Tubulin [24]): 46300 M⁻¹
CC(C)C[C@H](NC(=O)[C@H](Cc1ccccc1)NC(=O)[C@H](C)NC(=O)[C@H](CCCCN)NC(=O)[C@H](CCCNC(=N)N)NC(=O)[C@H](CCCNC(=N)N)NC(=O)[C@@H](N)Cc1ccccc1)C(=O)N[C@@H](Cc1c[nH]cn1)C(=O)N[C@@H](Cc1c[nH]c2ccccc12)C(=O)N[C@@H](Cc1ccc(O)cc1)C(=O)N[C@H](C(=O)NCC(=O)O)[C@@H](C)O (H-FRRKAFLHWYTG-OH)		272														Unstable		
CC(=O)N[C@@H](Cc1ccccc1)C(=O)N[C@@H](CCCNC(=N)N)C(=O)N[C@@H](CCCNC(=N)N)C(=O)N[C@@H](CCCCN)C(=O)N[C@@H](C)C(=O)N[C@@H](Cc1ccc(Cl)cc1)C(=O)N[C@H]1CCC/C=C\CCC[C@@H](C(=O)NCC(=O)O)NC(=O)[C@H](Cc2ccc(O)cc2)NC(=O)[C@H](Cc2c[nH]c3ccccc23)NC(=O)[C@H](Cc2cnc[nH]2)NC1=O (Ac-FRRKA[Phe(4-Cl)][Nle(6-ylidene)]HWY[Nle(6-ylidene)]G-OH; staple (Z) 7-11)	3.3	18.7								2.05 10^4/M/s								
CC(=O)N[C@@H](Cc1ccccc1)C(=O)N[C@@H](CCCNC(=N)N)C(=O)N[C@@H](CCCNC(=N)N)C(=O)N[C@@H](CCCCN)C(=O)N[C@@H](C)C(=O)N[C@@H](Cc1ccc(Br)cc1)C(=O)N[C@H]1CCC/C=C\CCC[C@@H](C(=O)NCC(=O)O)NC(=O)[C@H](Cc2ccc(O)cc2)NC(=O)[C@H](Cc2c[nH]c3ccccc23)NC(=O)[C@H](Cc2cnc[nH]2)NC1=O (Ac-FRRKA[Phe(4-Br)][Nle(6-ylidene)]HWY[Nle(6-ylidene)]G-OH; staple (Z) 7-11)	4	33.8								1.9 10^4/M/s								
CC(=O)N[C@@H](Cc1ccccc1)C(=O)N[C@@H](CCCNC(=N)N)C(=O)N[C@@H](CCCNC(=N)N)C(=O)N[C@@H](CCCCN)C(=O)N[C@@H](C)C(=O)N[C@@H](Cc1ccc(I)cc1)C(=O)N[C@H]1CCC/C=C\CCC[C@@H](C(=O)NCC(=O)O)NC(=O)[C@H](Cc2ccc(O)cc2)NC(=O)[C@H](Cc2c[nH]c3ccccc23)NC(=O)[C@H](Cc2cnc[nH]2)NC1=O (Ac-FRRKA[Phe(4-I)][Nle(6-ylidene)]HWY[Nle(6-ylidene)]G-OH; staple (Z) 7-11)	4.1	52.3																
C[C@H](NC(=O)[C@H](CCCCN)NC(=O)[C@H](CCCNC(=N)N)NC(=O)[C@H](CCCNC(=N)N)NC(=O)[C@@H](N)Cc1ccccc1)C(=O)N[C@@H](Cc1ccccc1)C(=O)N[C@H]1CCC/C=C\CCC[C@@H](C(=O)NCC(=O)O)NC(=O)[C@H](Cc2ccc(O)cc2)NC(=O)[C@H](Cc2c[nH]c3ccccc23)NC(=O)[C@H](Cc2c[nH]cn2)NC1=O (H-FRRKAF[Nle(6-ylidene)]HWY[Nle(6-ylidene)]G-OH; staple (Z) 7-11)	7	37.2	24.2	Active	Active	Active	Active	Active	0.5	1.43 10^4/M/s	10500	31.8	43.6	Active	Active	Stable	Active	
